The record followed here is PMC5559489 (Scientific Reports, 2017).

For experiment [1], the target named is seasonal influenza B virus neuraminidase (NA) (Influenza B virus, UniProt C0LT34). It is filed as biochemical.
The target in experiment [2] is seasonal influenza A(H3N2) virus neuraminidase (NA) (Influenza A virus, UniProt V9SU56). It is filed as biochemical.

Regarding `CCOC(=O)C1=C[C@@H](OC(CC)CC)[C@H](NC(C)=O)[C@@H](N)C1` [oseltamivir, Oseltamivir], the “susceptibility to oseltamivir (WHO definition)” value in experiment [1] and in experiment [2] was “sensitive” throughout.
